The source made the active and inactive calls. The rule behind the calls is not given here.

The values that follow come from ChEMBL document CHEMBL3797112, “Flavonoid profile and antileukemic activity of Coreopsis lanceolata flowers” (Bioorg Med Chem Lett, 2016).

The subject of series [1] is HL-60. Put plainly: (§1) Antiproliferative activity against human HL60 cells assessed as cell survival at 25 uM incubated for 48 hrs by CCK8 assay. The class given is functional.
A short description of series [2]: Retention time of the compound by UPLC-ESI-MS method. Type of series: physicochemical.
The test system of series [3] is HL-60. As to the kind of experiment: Induction of apoptosis in human HL60 cells assessed as induction of morphological changes at 25 uM incubated for 48 hrs by Hoechst-33342 staining assay. The class given is functional, cell-based.
The nature of series [4]: as §1. The class given is functional. Particulars: HL-60, 48 h, read-out: Survival.
Series [5] deals with HL-60. As to the kind of experiment: Induction of apoptosis in human HL60 cells at 25 uM incubated for 48 hrs by Giemsa staining assay. The class given is functional, cell-based.

Regarding `COc1c(O)ccc(C(=O)/C=C/c2ccc(O)c(O)c2)c1O`, the result with HL-60 [1] was inactive. The molecule also registered a Retention_time in series [2] of 30.97 min.
In the case of `COc1ccc(/C=C/C(=O)c2ccc(O)c(OC)c2O)cc1O`, the outcome in the series with HL-60 [3] and in the series on HL-60 [5] was Active. The viability at 25 µM in series [4] came out at 23.8%. Besides, the Retention_time in series [2] amounted to 41.24 min.
For the molecule `COc1c(O[C@@H]2O[C@H](CO)[C@@H](O)[C@H](O)[C@H]2O)ccc2c1O/C(=C\c1ccc(O)c(O)c1)C2=O`, the result with HL-60 [1] was inactive. The molecule further registered a Retention_time in series [2] of 16.07 min.
Regarding `CC(=O)O[C@H]1C(=O)[C@@]2(C)[C@H]([C@H](OC(=O)c3ccccc3)[C@]3(O)C[C@H](OC(=O)[C@H](O)[C@@H](NC(=O)c4ccccc4)c4ccccc4)C(C)=C1C3(C)C)[C@]1(OC(C)=O)CO[C@@H]1C[C@@H]2O` [PACLITAXEL], the viability at 25 µM in series [4] was 18.9%.
Take `O=C(/C=C/c1ccc(O)c(O)c1)c1ccc(O)c(O)c1O`: in the series on HL-60 [1], the result was inactive. This molecule also gave a Retention_time in series [2] of 20.14 min.
In the case of `COc1c(O)ccc2c1O[C@H](c1ccc(O)c(O)c1)CC2=O`, the result in the series on HL-60 [1] was inactive. Moreover, the Retention_time in series [2] turned out to be 18.52 min.
With `COc1c(O)ccc2c1O/C(=C\c1ccc(O)c(O)c1)C2=O`, the result in the series on HL-60 [1] was inactive. In series [2], this molecule showed a Retention_time of 25.04 min.
